Data published in US8822444B2, “Hepatitis C virus inhibitors” (Bristol-Myers Squibb Company, priority 2009, dated 2014).
Read-outs that look alike come from different tables or passages of the source.

Tested on: HCV 1b genotype
Test: HCV Replicon assay
Format: cell-based
Details: HCV 1b genotype replicon
Procedure: An HCV Replicon assay was utilized in the present disclosure, and was prepared, conducted and validated as described in commonly owned PCT/US2006/022197 and in O'Boyle et. al. Antimicrob Agents Chemother. 2005 April; 49(4):1346-53. Assay methods incorporating luciferase reporters have also been used as described (Apath.com).
HCV-neo replicon cells and replicon cells containing mutations in the NS5A region were used to test the currently described family of compounds. The compounds were determined to have more than 10-fold less inhibitory activity on cells containing mutations than wild-type cells. Thus, the compounds of the present disclosure can be effective in inhibiting the function of the HCV NS5A protein and are understood to be as effective in combinations as previously described in application PCT/US2006/022197 and commonly owned WO/04014852. Further, the compounds of the present disclosure can be effective against the HCV 1b genotype. It should also be understood that the compounds of the present disclosure can inhibit multiple genotypes of HCV. […] In one embodiment, compounds of the present disclosure are inhibitory versus 1a, 1b, 2a, 2b, 3a, 4a, and 5a genotypes.

[1] = Hepatitis C virus, read-out: 1b EC50 Range
[2] = Hepatitis C virus, read-out: 1b EC50 (in nM or range)

SMILES: CC[C@H](NC(=O)OC)C(=O)N1[C@@H]2C[C@@H]2C[C@H]1c1ncc(-c2ccc(C34CCC(c5cnc([C@@H]6C[C@H]7C[C@H]7N6C(=O)[C@H](CC)NC(=O)OC)[nH]5)(CC3)CC4)cc2)[nH]1 [Example M-6, methyl ((1S)-1-(((1R,3S,5R)-3-(5-(4-(4-(2-((1R,3S,5R)-2-((2S)-2-((methoxycarbonyl)amino)butanoyl)-2-azabicyclo[3.1.0]hex-3-yl)-1H-imidazol-5-yl)bicyclo[2.2.2]oct-1-yl)phenyl)-1H-imidazol-2-yl)-2-azabicyclo[3.1.0]hex-2-yl)carbonyl)propyl)carbamate]
- EC50 [1]: 2 to 4.57 nM

SMILES: COC(=O)N[C@@H](C(=O)N1[C@@H]2C[C@@H]2C[C@H]1c1ncc(-c2ccc(C34CCC(c5cnc([C@@H]6C[C@H]7C[C@H]7N6C(=O)[C@H](NC(=O)OC)c6ccccc6)[nH]5)(CC3)CC4)cc2)[nH]1)c1ccccc1 [Example M-7, methyl ((1R)-2-((1R,3S,5R)-3-(5-(4-(4-(2-((1R,3S,5R)-2-((2R)-2-((methoxycarbonyl)amino)-2-phenylacetyl)-2-azabicyclo[3.1.0]hex-3-yl)-1H-imidazol-5-yl)bicyclo[2.2.2]oct-1-yl)phenyl)-1H-imidazol-2-yl)-2-azabicyclo[3.1.0]hex-2-yl)-2-oxo-1-phenylethyl)carbamate]
- EC50 [1]: 2 to 4.57 nM

SMILES: COC(=O)N[C@H](C(=O)N1[C@@H]2C[C@@H]2C[C@H]1c1nc(Cl)c(-c2ccc(C34CCC(c5[nH]c([C@@H]6C[C@H]7C[C@H]7N6C(=O)[C@@H](NC(=O)OC)C(C)C)nc5Cl)(CC3)CC4)cc2)[nH]1)C(C)C [Example M-8, methyl ((1S)-1-(((1R,3S,5R)-3-(4-chloro-5-(4-(4-(4-chloro-2-((1R,3S,5R)-2-((2S)-2-((methoxycarbonyl)amino)-3-methylbutanoyl)-2-azabicyclo[3.1.0]hex-3-yl)-1H-imidazol-5-yl)bicyclo[2.2.2]oct-1-yl)phenyl)-1H-imidazol-2-yl)-2-azabicyclo[3.1.0]hex-2-yl)carbonyl)-2-methylpropyl)carbamate]
- EC50 [1]: 2 to 4.57 nM

SMILES: COC(=O)N[C@@H](C)C(=O)N1CCC[C@H]1c1nc(C2=CCC(C3CC=C(c4c[nH]c([C@@H]5CCCN5C(=O)[C@H](C)NC(=O)OC)n4)CC3)CC2)c[nH]1 (stereo partly drawn) [QC-2, methyl ((1S)-2-((2S)-2-(4-(4′-(2-((2S)-1-(N-(methoxycarbonyl)-L-alanyl)-2-pyrrolidinyl)-1H-imidazol-4-yl)-1,1′-bi(3-cyclohexen-1-yl)-4-yl)-1H-imidazol-2-yl)-1-pyrrolidinyl)-1-methyl-2-oxoethyl)carbamate]
- EC50 (read-out: 1b EC50 Range): 4.57 to 99 nM

SMILES: CCN(CC)[C@@H](C(=O)N1CCC[C@H]1c1nc(C2=CCC(C3CC=C(c4c[nH]c([C@@H]5CCCN5C(=O)[C@@H](c5ccccc5)N(CC)CC)n4)CC3)CC2)c[nH]1)c1ccccc1 (stereo partly drawn) [QC-3, (1R,1′R)-2,2′-(1,1′-bi(3-cyclohexen-1-yl)-4,4′-diylbis(1H-imidazole-4,2-diyl(2S)-2,1-pyrrolidinediyl))bis(N,N-diethyl-2-oxo-1-phenylethanamine)]
- EC50 (read-out: 1b EC50 Range): 2 to 4.57 nM

SMILES: COC[C@H](NC(=O)OC)C(=O)N1CCC[C@H]1c1nc(C2=CCC(C3CC=C(c4c[nH]c([C@@H]5CCCN5C(=O)[C@H](COC)NC(=O)OC)n4)CC3)CC2)c[nH]1 (stereo partly drawn) [QC-4, methyl ((1S)-2-((2S)-2-(4-(4′-(2-((2S)-1-(N-(methoxycarbonyl)-O-methyl-L-seryl)-2-pyrrolidinyl)-1H-imidazol-4-yl)-1,1′-bi(3-cyclohexen-1-yl)-4-yl)-1H-imidazol-2-yl)-1-pyrrolidinyl)-1-(methoxymethyl)-2-oxoethyl)carbamate]
- EC50 (read-out: 1b EC50 Range): 4.57 to 99 nM

SMILES: COC(=O)N[C@H](C(=O)N1CCC[C@H]1c1nc(C2=CCC(C3CC=C(c4c[nH]c([C@@H]5CCCN5C(=O)[C@@H](NC(=O)OC)[C@@H](C)OC)n4)CC3)CC2)c[nH]1)[C@@H](C)OC (stereo partly drawn) [QC-5, methyl ((1S,2R)-2-methoxy-1-(((2S)-2-(4-(4′-(2-((2S)-1-(N-(methoxycarbonyl)-O-methyl-L-threonyl)-2-pyrrolidinyl)-1H-imidazol-4-yl)-1,1′-bi(3-cyclohexen-1-yl)-4-yl)-1H-imidazol-2-yl)-1-pyrrolidinyl)carbonyl)propyl)carbamate]
- EC50 (read-out: 1b EC50 Range): 2 to 4.57 nM

SMILES: COC(=O)N[C@@H](C)C(=O)N1CCC[C@H]1c1nc(C2CCC(C3CCC(c4c[nH]c([C@@H]5CCCN5C(=O)[C@H](C)NC(=O)OC)n4)CC3)CC2)c[nH]1 (stereo partly drawn) [QC-6, methyl ((1S)-2-((2S)-2-(4-(4′-(2-((2S)-1-(N-(methoxycarbonyl)-L-alanyl)-2-pyrrolidinyl)-1H-imidazol-4-yl)-1,1′-bi(cyclohexyl)-4-yl)-1H-imidazol-2-yl)-1-pyrrolidinyl)-1-methyl-2-oxoethyl)carbamate]
- EC50 [1]: 100 to 999 nM

SMILES: COC[C@H](NC(=O)OC)C(=O)N1CCC[C@H]1c1nc(C2CCC(C3CCC(c4c[nH]c([C@@H]5CCCN5C(=O)[C@H](COC)NC(=O)OC)n4)CC3)CC2)c[nH]1 (stereo partly drawn) [QC-7, methyl ((1S)-2-((2S)-2-(4-(4′-(2-((2S)-1-(N-(methoxycarbonyl)-O-methyl-L-seryl)-2-pyrrolidinyl)-1H-imidazol-4-yl)-1,1′-bi(cyclohexyl)-4-yl)-1H-imidazol-2-yl)-1-pyrrolidinyl)-1-(methoxymethyl)-2-oxoethyl)carbamate]
- EC50 [2]: 17.1 nM
- EC50 [1]: 1000 to 10000 nM

SMILES: COC(=O)N[C@H](C(=O)N1CCC[C@H]1c1nc(C2CCC(C3CCC(c4c[nH]c([C@@H]5CCCN5C(=O)[C@@H](NC(=O)OC)[C@@H](C)OC)n4)CC3)CC2)c[nH]1)[C@@H](C)OC (stereo partly drawn) [QC-8, methyl ((1S,2R)-2-methoxy-1-(((2S)-2-(4-(4′-(2-((2S)-1-(N-(methoxycarbonyl)-O-methyl-L-threonyl)-2-pyrrolidinyl)-1H-imidazol-4-yl)-1,1′-bi(cyclohexyl)-4-yl)-1H-imidazol-2-yl)-1-pyrrolidinyl)carbonyl)propyl)carbamate]
- EC50 [2]: 2.4 nM
- EC50 [1]: 100 to 999 nM

SMILES: COC(=O)N[C@@H](C)C(=O)N1CCC[C@H]1c1nc(C2=CCC(c3ccc(-c4c[nH]c([C@@H]5CCCN5C(=O)[C@H](C)NC(=O)OC)n4)cc3)CC2)c[nH]1 (stereo partly drawn) [QC-10, methyl ((1S)-2-((2S)-2-(4-(4-(4-(2-((2S)-1-(N-(methoxycarbonyl)-1-alanyl)-2-pyrrolidinyl)-1H-imidazol-4-yl)-3-cyclohexen-1-yl)phenyl)-1H-imidazol-2-yl)-1-pyrrolidinyl)-1-methyl-2-oxoethyl)carbamate]
- EC50 (read-out: 1b EC50 Range): 4.57 to 99 nM

SMILES: COC[C@H](NC(=O)OC)C(=O)N1CCC[C@H]1c1nc(C2=CCC(c3ccc(-c4c[nH]c([C@@H]5CCCN5C(=O)[C@H](COC)NC(=O)OC)n4)cc3)CC2)c[nH]1 (stereo partly drawn) [QC-11, methyl ((1S)-2-((2S)-2-(4-(4-(4-(2-((2S)-1-(N-(methoxycarbonyl)-O-methyl-L-seryl)-2-pyrrolidinyl)-1H-imidazol-4-yl)-3-cyclohexen-1-yl)phenyl)-1H-imidazol-2-yl)-1-pyrrolidinyl)-1-(methoxymethyl)-2-oxoethyl)carbamate]
- EC50 [1]: 4.57 to 99 nM

SMILES: COC(=O)N[C@H](C(=O)N1CCC[C@H]1c1nc(C2=CCC(c3ccc(-c4c[nH]c([C@@H]5CCCN5C(=O)[C@@H](NC(=O)OC)[C@@H](C)OC)n4)cc3)CC2)c[nH]1)[C@@H](C)OC (stereo partly drawn) [QC-12, methyl ((1S,2R)-2-methoxy-1-(((2S)-2-(4-(4-(4-(2-((2S)-1-(N-(methoxycarbonyl)-O-methyl-L-threonyl)-2-pyrrolidinyl)-1H-imidazol-4-yl)-3-cyclohexen-1-yl)phenyl)-1H-imidazol-2-yl)-1-pyrrolidinyl)carbonyl)propyl)carbamate]
- EC50 [1]: 4.57 to 99 nM

SMILES: COC(=O)N[C@H](C(=O)N1CCC[C@H]1c1nc(-c2ccc(N3CCC(c4c[nH]c([C@@H]5CCCN5C(=O)[C@@H](NC(=O)OC)C(C)C)n4)CC3)cc2)c[nH]1)C(C)C [QC-13, methyl ((1S)-1-(((2S)-2-(4-(1-(4-(2-((2S)-1-((2S)-2-((methoxycarbonyl)amino)-3-methylbutanoyl)-2-pyrrolidinyl)-1H-imidazol-4-yl)phenyl)-4-piperidinyl)-1H-imidazol-2-yl)-1-pyrrolidinyl)carbonyl)-2-methylpropyl)carbamate]
- EC50 [1]: 4.57 to 99 nM

SMILES: COC[C@H](NC(=O)OC)C(=O)N1CCC[C@H]1c1nc(-c2ccc(N3CCC(c4c[nH]c([C@@H]5CCCN5C(=O)[C@H](COC)NC(=O)OC)n4)CC3)cc2)c[nH]1 [QC-14, methyl ((1S)-2-((2S)-2-(4-(4-(4-(2-((2S)-1-(N-(methoxycarbonyl)-O-methyl-L-seryl)-2-pyrrolidinyl)-1H-imidazol-4-yl)-1-piperidinyl)phenyl)-1H-imidazol-2-yl)-1-pyrrolidinyl)-1-(methoxymethyl)-2-oxoethyl)carbamate]
- EC50 [1]: 100 to 999 nM

SMILES: COC(=O)N[C@H](C(=O)N1CCC[C@H]1c1nc(-c2ccc(N3CCC(c4c[nH]c([C@@H]5CCCN5C(=O)[C@@H](NC(=O)OC)C(C)(C)C)n4)CC3)cc2)c[nH]1)C(C)(C)C [QC-15, methyl ((1S)-1-(((2S)-2-(4-(1-(4-(2-((2S)-1-((2S)-2-((methoxycarbonyl)amino)-3,3-dimethylbutanoyl)-2-pyrrolidinyl)-1H-imidazol-4-yl)phenyl)-4-piperidinyl)-1H-imidazol-2-yl)-1-pyrrolidinyl)carbonyl)-2,2-dimethylpropyl)carbamate]
- EC50 [1]: 4.57 to 99 nM
